{"source": "patent US4167580A", "about": "“Compositions and method of use to treat arthritic disease with m-fluorobenzimidoylacetonitrile” (American Cyanamid Company, priority 1978, dated 1979)", "key": {"[1]": {"system": "Adjuvant Arthritis in Rats", "experiment": "Adjuvant induced arthritis in rats (chronic inflammation with joint destruction)", "type": "in vivo, Royal Hart, Wistar strain rats", "details": "once daily days 0-13", "description": "Adjuvant induced experimental polyarthritis is a specific systemic disease of the rat which shares interesting similarities with rheumatoid arthritis. Specifically, the histology of the two diseases bears a remarkable resemblance as shown by C. M. Pearson et al., Am. J. Pathol. 42, 73 (1963). E. M. Glenn, Am. J. Vet. Res. 27 (116), 339 (1966) has classified adjuvant induced polyarthritis as a crippling and permanent deformity resulting from diffuse connective tissue involvement around certain susceptible joints in the rat. Zahiri et al., Can. Med. Ass. J. 101, 269 (1969) have shown that the fusiform swelling of the distal joints is associated with edema, congestion and synovitis including pannus formation, all of which precede the ultimate destruction of bone and cartilage. Furthermore, Zahiri et al. indicate that the cartilage destruction in the joint is due to an invasive pannus which originates in the marginal synovium and extends across the articular surface to erode it. […] See S. Wong et al., J. Pharm. & Exptl. Ther. 185, 127 (1973) and G. R. Bobalick et al., Agents & Actions 4, 364 (1974). In a similar manner, inhibition of the progress of arthritis in paws of rats treated with the compounds of this invention also lessens associated joint deterioration.\nGroups of three Royal Hart, Wistar strain rats weighing 200±10 grams each were injected intradermally in the right hind paw with Freund's adjuvant (dried human tubercle bacilli in a mineral oil vehicle) at a dose of 2 mg./kg. of body weight. Test compounds were administered orally in a 1.5% staruh vehicle at various doses once daily on days 0 through 13 post challenge. Control rats were treated in a similar manner, but given only starch vehicle. On the 14th and 21st day post challenge the diameter of the injected paw (primary lesion) was measured by micrometer caliper. The volume of inflamed paws were estimated from these measurements and the results are expressed as percent inhibition of swelling as compared to controls. At the same time, the other inflamed sites, such as ears, paws and tail (secondary lesions) were observed and each rat was graded as to degree of inflammation and swelling present. The grading is based on a scale of 0 to 24, where 0 represents a complete absence of induced arthritic nodules and 24 represents the maximum degree of inflammation. The mean grade for each treated group is calculated and the effects of each compound are expressed as percent inhibition of the control grade. Table III records the results of these tests conducted with benzimidoylacetonitrile, m-fluorobenzimidoylacetonitrile and p-fluorobenzimidoylacetonitrile and known anti-inflammatory agents. The active compounds of the present invention suppress the progression of the arthritis and associated joint deterioration. Of particular interest is the low mortality observed with benzimidoylacetonitrile treated rats relative to either controls or rats treated with standard compounds."}, "[2]": {"system": "Carrageenin Induced Edema of the Rat Paw", "experiment": "Carrageenin induced edema of the rat paw (acute anti-inflammatory activity)", "type": "in vivo, Royal Hart, Wistar strain rats", "details": "25 mg./kg. by gavage, 5 hours after drug (4 hours after carrageenin)", "description": "In determining the acute anti-inflammatory activity of benzimidoylacetonitrile, Royal Hart, Wistar strain rats ranging in weight from 80 to 90 grams were used. The rats were fasted overnight prior to dosing but had free access to water. The compound was administered in aqueous suspension, by gavage, in a volume of 1.7 ml. per 50 grams of rat [corresponds by hydration volume used by Winter et al., Proc. Soc. […] The phlogistic agent used was carrageenin prepared as a sterile 1% suspension in 0.9% aqueous sodium chloride for routine testing. A volume of 0.05 ml. was injected through a 26 gauge needle into the planter tissue of the right hind paw. Measurements were made 5 hours after drug administration (4 hours after carrageenin challenge). Volumes of both the normal and carrageenin inflamed feet were determined. The difference between the two measurements is considered to be the increased edema due to the carrageenin administration."}, "arthritic paw swelling": {"system": "arthritic paw swelling", "details": "Wong et al. 1973; Bobalick et al. 1974; cited from earlier work"}, "Erythema in Guinea Pigs": {"system": "Erythema in Guinea Pigs", "experiment": "Ultraviolet induced erythema in guinea pigs, topical application", "type": "in vivo, Albino guinea pigs", "description": "Albino guinea pigs were depilitated on their flanks, the evening before testing, with a standard mixture of barium sulfide and gum acacia. On the morning of the test at 0 hour they were restrained in a plastic container which allows exposure of 3 circular spots. They were then exposed to ultraviolet irradiation from a \"Hanovia\" Kromayer lamp, model 10, for 60 seconds. Immediately after exposure to ultraviolet light, the guinea pigs were treated by dissolving the test compound in ethyl alcohol at various concentrations and swabbing the UV exposed areas with the aid of a cottom tipped applicator stick. At one and four hours, the degree of erythema for each of the three sites was assessed according to the following scoring system: 0=no erythema, 0.5=incomplete circle or faint erythema and 1.0=complete circle of distinct erythema. Thus, the maximum score for each animal was 3.0."}, "[3]": {"system": "Body Temperature of Pyretic Rats", "experiment": "Body temperature in yeast induced pyrexia", "type": "in vivo, Royal Hart, Wistar strain rats", "details": "250 mg./kg. by gavage 17 hours after yeast; measured 19 hours post challenge", "description": "The effect of benzimidoylacetonitrile on body temperature in yeast induced pyrexia was determined by the following procedure. Groups of three Royal Hart, Wistar strain rats weighing 80±5 grams were injected subcutaneously in the nape of the neck with 0.6 ml. of a 40% suspension of dried brewers yeast in distilled water. […] At 19 hours post challenge the rectal temperature of each rat was measured with an electric thermometer. Each dose response experiment was replicated one or more times."}}, "data": [{"molecule": "COc1ccc2c(c1)c(CC(=O)O)c(C)n2C(=O)c1ccc(Cl)cc1", "note": "[Indomethacin]", "values": [{"measurement": "% Inhibition of Control Grade (secondary lesion), Day 14", "setting": "[1]; 0.25 mg./kg. oral", "value": 22, "unit": "%"}, {"measurement": "% Inhibition of Control Grade (secondary lesion), Day 21", "setting": "[1]; 0.25 mg./kg. oral", "value": 4, "unit": "%"}, {"measurement": "% Inhibition of Swelling (primary lesion), Day 14", "setting": "[1]; 0.25 mg./kg. oral", "value": 30, "unit": "%"}, {"measurement": "% Inhibition of Swelling (primary lesion), Day 21", "setting": "[1]; 0.25 mg./kg. oral", "value": 4, "unit": "%"}, {"measurement": "Dead/Treated At 21 Days", "setting": "[1]; 0.25 mg./kg. oral", "value": "0/9"}, {"measurement": "Mean Weight Gain, Day 14", "setting": "[1]; 0.25 mg./kg. oral", "value": 51, "unit": "grams"}, {"measurement": "Mean Weight Gain, Day 21", "setting": "[1]; 0.25 mg./kg. oral", "value": 57, "unit": "grams"}, {"measurement": "% Inhibition of Control Grade (secondary lesion), Day 14", "setting": "[1]; 0.5 mg./kg. oral", "value": 25, "unit": "%"}, {"measurement": "% Inhibition of Control Grade (secondary lesion), Day 21", "setting": "[1]; 0.5 mg./kg. oral", "value": 17, "unit": "%"}, {"measurement": "% Inhibition of Swelling (primary lesion), Day 14", "setting": "[1]; 0.5 mg./kg. oral", "value": 40, "unit": "%"}, {"measurement": "% Inhibition of Swelling (primary lesion), Day 21", "setting": "[1]; 0.5 mg./kg. oral", "value": 20, "unit": "%"}, {"measurement": "Dead/Treated At 21 Days", "setting": "[1]; 0.5 mg./kg. oral", "value": "5/54"}, {"measurement": "Mean Weight Gain, Day 14", "setting": "[1]; 0.5 mg./kg. oral", "value": 53, "unit": "grams"}, {"measurement": "Mean Weight Gain, Day 21", "setting": "[1]; 0.5 mg./kg. oral", "value": 51, "unit": "grams"}, {"measurement": "% Inhibition of Control Grade (secondary lesion), Day 14", "setting": "[1]; 1 mg./kg. oral", "value": 34, "unit": "%"}, {"measurement": "% Inhibition of Control Grade (secondary lesion), Day 21", "setting": "[1]; 1 mg./kg. oral", "value": 20, "unit": "%"}, {"measurement": "% Inhibition of Swelling (primary lesion), Day 14", "setting": "[1]; 1 mg./kg. oral", "value": 46, "unit": "%"}, {"measurement": "% Inhibition of Swelling (primary lesion), Day 21", "setting": "[1]; 1 mg./kg. oral", "value": 19, "unit": "%"}, {"measurement": "Dead/Treated At 21 Days", "setting": "[1]; 1 mg./kg. oral", "value": "9/54"}, {"measurement": "Mean Weight Gain, Day 14", "setting": "[1]; 1 mg./kg. oral", "value": 63, "unit": "grams"}, {"measurement": "Mean Weight Gain, Day 21", "setting": "[1]; 1 mg./kg. oral", "value": 65, "unit": "grams"}, {"measurement": "% Inhibition of Control Grade (secondary lesion), Day 14", "setting": "[1]; 2 mg./kg. oral", "value": 38, "unit": "%"}, {"measurement": "% Inhibition of Control Grade (secondary lesion), Day 21", "setting": "[1]; 2 mg./kg. oral", "value": 25, "unit": "%"}, {"measurement": "% Inhibition of Swelling (primary lesion), Day 14", "setting": "[1]; 2 mg./kg. oral", "value": 51, "unit": "%"}, {"measurement": "% Inhibition of Swelling (primary lesion), Day 21", "setting": "[1]; 2 mg./kg. oral", "value": 24, "unit": "%"}, {"measurement": "Dead/Treated At 21 Days", "setting": "[1]; 2 mg./kg. oral", "value": "8/57"}, {"measurement": "Mean Weight Gain, Day 14", "setting": "[1]; 2 mg./kg. oral", "value": 68, "unit": "grams"}, {"measurement": "Mean Weight Gain, Day 21", "setting": "[1]; 2 mg./kg. oral", "value": 68, "unit": "grams"}, {"measurement": "C/T Edema Ratio (edema of control animals/edema of treated animals)", "setting": "[2]", "value": 2.9}, {"measurement": "arthritic paw swelling (in words)", "setting": "arthritic paw swelling", "value": "inhibit arthritic paw swelling"}, {"measurement": "joint and bone deterioration (in words)", "setting": "arthritic paw swelling", "value": "prevent joint and bone deterioration"}, {"measurement": "Erythema Score (Avg.) 1 Hr.", "setting": "Erythema in Guinea Pigs; 0.25% in ethyl alcohol, maximum score 3.0, control 2.5", "value": 1.8}, {"measurement": "Erythema Score (Avg.) 4 Hr.", "setting": "Erythema in Guinea Pigs; 0.25% in ethyl alcohol, maximum score 3.0, control 3.0", "value": 2.5}, {"measurement": "Erythema Score (Avg.) 1 Hr.", "setting": "Erythema in Guinea Pigs; 0.5% in ethyl alcohol, maximum score 3.0, control 2.5", "value": 1.5}, {"measurement": "Erythema Score (Avg.) 4 Hr.", "setting": "Erythema in Guinea Pigs; 0.5% in ethyl alcohol, maximum score 3.0, control 3.0", "value": 2.4}, {"measurement": "Erythema Score (Avg.) 1 Hr.", "setting": "Erythema in Guinea Pigs; 1% in ethyl alcohol, maximum score 3.0, ethyl alcohol control 2.5", "value": 0.7}, {"measurement": "Erythema Score (Avg.) 4 Hr.", "setting": "Erythema in Guinea Pigs; 1% in ethyl alcohol, maximum score 3.0, ethyl alcohol control 3.0", "value": 2.5}, {"measurement": "Decrease In Body Temp.", "setting": "[3]", "value": 2.5, "unit": "°C"}]}]}
